Activity calls are given as the source filed them.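 How the source made its calls: active means IC50 of 10 µM or lower; inactive means IC50 above 10 µM.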

Chain of Mitogen-activated protein kinase kinase kinase 5 (Homo sapiens) (Q99683 whole entry, looked up): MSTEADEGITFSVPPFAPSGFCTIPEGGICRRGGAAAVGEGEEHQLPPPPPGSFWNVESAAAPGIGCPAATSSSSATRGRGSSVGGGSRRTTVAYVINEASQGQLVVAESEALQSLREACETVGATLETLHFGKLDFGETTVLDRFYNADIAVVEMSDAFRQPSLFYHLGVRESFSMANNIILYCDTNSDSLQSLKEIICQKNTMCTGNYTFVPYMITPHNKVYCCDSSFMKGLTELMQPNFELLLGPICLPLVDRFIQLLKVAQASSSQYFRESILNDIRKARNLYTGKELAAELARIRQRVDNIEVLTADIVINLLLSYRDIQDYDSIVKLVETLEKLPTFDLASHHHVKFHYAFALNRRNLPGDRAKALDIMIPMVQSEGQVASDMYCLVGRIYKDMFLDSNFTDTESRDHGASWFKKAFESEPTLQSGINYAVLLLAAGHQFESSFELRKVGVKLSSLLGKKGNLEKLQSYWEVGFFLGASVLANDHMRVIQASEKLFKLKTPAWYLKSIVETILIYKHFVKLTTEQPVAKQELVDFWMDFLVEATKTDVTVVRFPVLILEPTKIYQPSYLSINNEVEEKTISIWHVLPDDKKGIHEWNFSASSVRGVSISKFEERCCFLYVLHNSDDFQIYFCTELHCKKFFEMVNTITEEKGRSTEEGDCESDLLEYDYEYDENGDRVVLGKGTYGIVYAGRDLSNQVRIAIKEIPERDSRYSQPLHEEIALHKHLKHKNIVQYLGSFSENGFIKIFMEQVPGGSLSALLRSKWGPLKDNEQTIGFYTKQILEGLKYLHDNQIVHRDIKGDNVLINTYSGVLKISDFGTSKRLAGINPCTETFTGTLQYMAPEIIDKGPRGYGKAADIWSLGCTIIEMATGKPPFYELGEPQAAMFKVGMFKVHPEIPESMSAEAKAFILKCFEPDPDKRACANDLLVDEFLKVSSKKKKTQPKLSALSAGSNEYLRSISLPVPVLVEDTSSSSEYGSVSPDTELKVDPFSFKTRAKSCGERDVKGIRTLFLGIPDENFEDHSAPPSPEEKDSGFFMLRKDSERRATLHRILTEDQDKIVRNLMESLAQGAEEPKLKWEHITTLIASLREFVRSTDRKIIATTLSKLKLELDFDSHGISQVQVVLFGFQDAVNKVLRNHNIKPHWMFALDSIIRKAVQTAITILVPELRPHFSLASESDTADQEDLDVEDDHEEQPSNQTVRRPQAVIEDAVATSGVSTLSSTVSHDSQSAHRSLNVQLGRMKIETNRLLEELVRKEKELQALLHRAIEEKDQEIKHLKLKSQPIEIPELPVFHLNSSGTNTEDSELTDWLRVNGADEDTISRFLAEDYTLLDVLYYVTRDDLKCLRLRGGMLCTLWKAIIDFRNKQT

The assay addresses Mitogen-activated protein kinase kinase kinase 5 (Homo sapiens) (UniProt Q99683). Nature of the assay: ASK1 kinase inhibitor potency, dose response, biochemical, AlphaScreen, MKK6 phosphorylation (AID 1159605).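 Further: ASK1 phosphorylation of MKK6 substrate detected with anti-phospho-MKK6 antibody beads; inhibitors lower the luminescent signal by blocking MKK6 phosphorylation.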 Conditions: AlphaScreen luminescence. Background: Alpha assays give light when donor and acceptor beads are brought close together.
The IC50 is the concentration needed to halve the response being measured. Take `COc1cc(Nc2ccnc(Nc3cccc(N(C)C)c3)n2)cc(OC)c1OC`: the IC50 is 6.84 µM.

As to `Cn1cc(-c2ccc3cnc(Nc4ccc(-c5ccc(N6CCOCC6)nc5)cc4)nc3c2Cl)cn1`, the IC50 was > 19.2 µM (inactive).

As to `Nc1nc(Nc2ccc(N3CCOCC3)cc2)cc(-c2ccc3[nH]ccc3c2)n1`, the IC50 is 8.21 µM.

With `CC(C)n1c(-c2ccc(C(N)=O)cc2)nc2c(Nc3ccc(Oc4ccccc4)cc3)ncnc21`, the IC50 was > 20 µM (inactive).

For the compound `CN(C)c1cccc(Nc2nc(NCCc3ccc(O)cc3)c3ncn(-c4ccccc4)c3n2)c1`, the IC50 was > 20 µM (inactive).

As for `CC(C)n1cnc2c(NCc3cccc(C(F)(F)F)c3)nc(Nc3ccc(N4CCOCC4)cc3)nc21`, the IC50 was 5.42 µM.

Regarding `c1nc(Nc2ccc(N3CCOCC3)cc2)c2[nH]c(N3CCN(Cc4ccc5c(c4)OCO5)CC3)nc2n1`, the IC50 was > 13.8 µM (inactive).

For the compound `NC(=O)c1ccc(-c2nc(NCc3cccc(C(F)(F)F)c3)c3ncn(Cc4ccc(C(F)(F)F)cc4)c3n2)cc1`, the IC50 is > 17.3 µM (inactive).

For `c1ccc(CCn2ncc(-c3ccnc(Nc4ccc(N5CCOCC5)cc4)c3)c2Nc2ccccc2)cc1`, the IC50 was > 19.2 µM (inactive).

Take `COc1cc2nc(Nc3ccc(N4CCOCC4)cc3)nc(NCc3ccccc3)c2cc1OC`: the IC50 is > 20 µM (inactive).

For `COc1cc2nc(Nc3ccncc3)nc(Nc3ccc(N4CCOCC4)cc3)c2cc1OC`, the IC50 entry was “inactive”.

For the compound `FC(F)(F)c1ccc(Cn2cnc3c(Nc4ccc5c(c4)OCO5)nc(N4CCN(c5ccccn5)CC4)nc32)cc1`, the IC50 is > 20 µM (inactive).

As to `COc1cc2nc(Nc3ccc(-n4ccnc4)cc3)nc(Nc3ccc4c(c3)OCO4)c2cc1OC`, the IC50 is > 20 µM (inactive).

Turning to `CC(C)NC(=O)c1cccc(NC(=O)Nc2ccc(-c3ccnc4[nH]ccc34)cc2)c1`, the IC50 is > 19.2 µM (inactive).

Take `c1ccc(OCCNc2nc(Nc3ccc(N4CCOCC4)cc3)nc3c2ncn3C2CCCCC2)cc1`: the IC50 is 5.66 µM.

Turning to `O=C(Nc1ccccc1)c1ccccc1Nc1ccnc(Nc2ccc(N3CCOCC3)cc2)c1`, the IC50 was > 19.2 µM (inactive).

Take `CN(C)c1cccc(Nc2ccc(-n3cc(CC(=O)Nc4ccc(N5CCOCC5)cc4)c4ccccc43)nn2)c1`: the IC50 is > 20.1 µM (inactive).

Regarding `CCN(CC)c1nc(Nc2ccc(N3CCOCC3)cc2)nc(N2CCN(Cc3ccc4c(c3)OCO4)CC2)n1`, the IC50 is 8.17 µM.

Turning to `COc1ccc(CCNc2nc(Nc3ccc(N4CCOCC4)cc3)nc3cc(OC)c(OC)cc23)cc1`, the IC50 result was “inactive”.

As for `COc1cc2nc(Nc3ccc4ncccc4c3)nc(Nc3ccc(NC(C)=O)cc3)c2cc1OC`, the IC50 is > 20 µM (inactive).

Turning to `COc1cc2nc(Nc3cc(OC)c(OC)c(OC)c3)nc(Nc3ccc(N4CCOCC4)cc3)c2cc1OC`, the IC50 is > 20.3 µM (inactive).

As for `c1cc(Nc2ccc3c(c2)OCO3)nc(Nc2ccc(N3CCOCC3)cc2)n1`, the IC50 result was “inactive”.

Consider `Oc1ccc(CCNc2ncnc3nc(N4CCN(Cc5ccc6c(c5)OCO6)CC4)[nH]c23)cc1`, for which the IC50 was > 16.9 µM (inactive).

On to `FC(F)(F)c1ccc(Cn2cnc3c(Nc4ccc(N5CCOCC5)cc4)nc(N4CCN(c5ccccn5)CC4)nc32)cc1`, for which the IC50 is > 20 µM (inactive).

For the compound `Cc1cnc(-c2ccc(C(N)=O)cc2)nc1Nc1ccc(N2CCOCC2)cc1`, the IC50 result was “inactive”.

With `c1cc(-n2cnc3c(NC4CC4)nc(Nc4ccc(N5CCOCC5)cc4)nc32)cs1`, the IC50 entry is “inactive”.

In the case of `COc1ccc(CCNc2nc(Nc3cccc(N(C)C)c3)nc3cc(OC)c(OC)cc23)cc1`, the IC50 entry was “inactive”.

On to `CN(C)c1cccc(Nc2nccc(Nc3ccc4c(c3)OCO4)n2)c1`, for which the IC50 entry is “inactive”.

In the case of `CN1CCN(c2nc(C3COc4ccccc4O3)nc3ccc(-c4cn[nH]c4)cc23)CC1` (configuration not stated), the IC50 was > 19.2 µM (inactive).

Turning to `Cn1cc(-c2ccc3cnc(Nc4ccc(-n5cnc(N6CCOCC6)n5)cc4)nc3c2)cn1`, the IC50 is > 19.2 µM (inactive).

Turning to `COc1cc2nc(Nc3ccc(N4CCOCC4)cc3)nc(Nc3ccccc3)c2cc1OC`, the IC50 was > 20.1 µM (inactive).

Take `CC(C)n1cnc2c(Nc3ccc(N4CCOCC4)cc3)nc(N3CCN(Cc4ccc5c(c4)OCO5)CC3)nc21`: the IC50 entry was “inactive”.

Take `COc1ccc(CCNc2nc(Nc3ccc(N4CCOCC4)cc3)nc3c2ncn3-c2ccccc2)cc1`: the IC50 was 9.28 µM.

Consider `COc1ccc2c(c1)CC(C(=O)Nc1ccc(-c3cn[nH]c3)cc1OCCOCc1ccccc1)CO2` (configuration not stated), for which the IC50 is > 19.2 µM (inactive).

For the compound `Nc1nc(Nc2ccc(N3CCOCC3)cc2)cc(Nc2ccc3c(c2)OCO3)n1`, the IC50 was > 16.8 µM (inactive).

For the compound `COc1cc2nc(Nc3cccc(N(C)C)c3)nc(Nc3ccc(N4CCOCC4)cc3)c2cc1OC`, the IC50 is > 19.9 µM (inactive).

On to `COc1cc2nc(Nc3cccc(N(C)C)c3)nc(Nc3cc(OC)c(OC)c(OC)c3)c2cc1OC`, for which the IC50 is > 19 µM (inactive).

Regarding `COc1cc2nc(Nc3ccc(N4CCOCC4)cc3)nc(NC3CC3)c2cc1OC`, the IC50 result was “inactive”.

As to `c1ccc(CN2CCC(Nc3nc(N4CCN(Cc5ccc6c(c5)OCO6)CC4)nc4c3ncn4C3CCCCC3)CC2)cc1`, the IC50 entry was “inactive”.

Regarding `NC(=O)c1cc2ccccc2cc1Nc1ccnc(Nc2ccc(N3CCOCC3)cc2)c1`, the IC50 is > 19.2 µM (inactive).

For the compound `c1cnc2ccc(Nc3nc(Nc4ccc(N5CCOCC5)cc4)c4[nH]cnc4n3)cc2c1`, the IC50 entry is “inactive”.

Consider `Oc1ccc(CCNc2nc(N3CCN(Cc4ccc5c(c4)OCO5)CC3)nc3c2ncn3-c2ccsc2)cc1`, for which the IC50 result is “inactive”.

`O=C(NC1CC1)c1ccc(-c2nc(NCc3cccc(C(F)(F)F)c3)c3ncn(-c4ccccc4)c3n2)cc1`: the IC50 is > 19.9 µM (inactive).

For `O=C(Cc1cn(-c2ccc(Nc3nccc4ccccc34)nn2)c2ccccc12)Nc1ccc2c(c1)OCO2`, the IC50 is > 21.6 µM (inactive).

As to `CN(C)c1cccc(Nc2nccc(NCc3cccc(C(F)(F)F)c3)n2)c1`, the IC50 was > 16.5 µM (inactive).

Turning to `CN(C)c1cccc(Nc2nccc(NCCOc3ccccc3)n2)c1`, the IC50 entry was “inactive”.

In the case of `COc1cc2nc(Nc3cccc(N(C)C)c3)nc(NCc3cccc(C(F)(F)F)c3)c2cc1OC`, the IC50 was > 18.9 µM (inactive).

Consider `Cc1cc(NCc2cccc(C(F)(F)F)c2)nc(Nc2ccc(N3CCOCC3)cc2)n1`, for which the IC50 is 6.57 µM.

With `c1ccc(CCn2nc(-c3ccnc(Nc4ccc(N5CCOCC5)cc4)c3)cc2Nc2ccccc2)cc1`, the IC50 is > 19.2 µM (inactive).

As to `c1ccc(Oc2ccc(Nc3nc(N4CCc5ccccc5C4)nc4c3ncn4-c3ccccc3)cc2)cc1`, the IC50 was > 20 µM (inactive).

Regarding `Fc1ccc(-c2c(-c3ccnc(Nc4ccc(N5CCOCC5)cc4)c3)noc2NCc2ccccc2)cc1`, the IC50 is > 19.2 µM (inactive).

As to `Cc1cc(NCc2cccc(C(F)(F)F)c2)nc(Nc2cccc(N(C)C)c2)n1`, the IC50 is > 20.1 µM (inactive).

For the compound `c1cc(-n2cnc3c(Nc4ccc(N5CCOCC5)cc4)nc(N4CCN(Cc5ccc6c(c5)OCO6)CC4)nc32)cs1`, the IC50 result was “inactive”.

For the compound `Cc1cnc(-c2cccc(N)c2)nc1Nc1ccc(N2CCOCC2)cc1`, the IC50 result was “inactive”.

Consider `Cc1nc(C)n(-c2ccc(Nc3nccc(-c4cccc(-n5nccn5)c4)n3)cc2)n1`, for which the IC50 is > 19.2 µM (inactive).

Regarding `COc1cc2nc(Nc3cccc(N(C)C)c3)nc(NC3CC3)c2cc1OC`, the IC50 entry was “inactive”.

As to `CN(C)c1cccc(Nc2nc(NCCc3ccc(O)cc3)c3ncn(Cc4ccc(C(F)(F)F)cc4)c3n2)c1`, the IC50 entry was “inactive”.

For `O=C(Nc1ccc(-c2ncnc3[nH]ccc23)cc1)C1COc2ccccc2O1` (configuration not stated), the IC50 was > 19.2 µM (inactive).

`COc1cc2nc(Nc3ccccc3)nc(Nc3ccc(N4CCOCC4)cc3)c2cc1OC`: the IC50 is > 24 µM (inactive).

For `FC(F)(F)c1cccc(CNc2ccnc(Nc3ccc(N4CCOCC4)cc3)n2)c1`, the IC50 result was “inactive”.

With `CN(C)c1cc(F)cc(-c2ccnc(Nc3ccc(-n4cnc(N5CCC(O)CC5)n4)cc3)n2)c1`, the IC50 is > 19.2 µM (inactive).

Regarding `CC(C)n1cnc2c(Nc3ccc4c(c3)OCO4)nc(NCc3ccc4c(c3)OCO4)nc21`, the IC50 entry is “inactive”.

For `c1cc(-n2cnc3c(Nc4ccc(N5CCOCC5)cc4)nc(NCc4ccc5c(c4)OCO5)nc32)cs1`, the IC50 was > 19.9 µM (inactive).

Turning to `Cc1cc(NCCc2ccc(O)cc2)nc(N2CCN(Cc3ccc4c(c3)OCO4)CC2)n1`, the IC50 was > 18.1 µM (inactive).

As to `FC(F)(F)c1cccc(CNc2nc(Nc3ccc(N4CCOCC4)cc3)nc3nc[nH]c23)c1`, the IC50 entry is “inactive”.

Consider `Oc1ccc(CCNc2nc(NC3CCN(Cc4ccccc4)CC3)nc3c2ncn3Cc2ccc(C(F)(F)F)cc2)cc1`, for which the IC50 result is “inactive”.

Take `Nc1cccc(-c2nc3ncnc(Nc4ccc(N5CCOCC5)cc4)c3[nH]2)c1`: the IC50 is > 18.2 µM (inactive).

For `c1cc(-c2ccc3[nH]ncc3c2)nc(Nc2ccc(N3CCOCC3)cc2)n1`, the IC50 is > 19.2 µM (inactive).

With `FC(F)(F)c1ccc(Cn2cnc3c(Nc4ccc5c(c4)OCO5)nc(Nc4ccccc4)nc32)cc1`, the IC50 is > 22 µM (inactive).

Turning to `c1cc(-n2cnc3c(Nc4ccc5c(c4)OCO5)nc(N4CCN(Cc5ccc6c(c5)OCO6)CC4)nc32)cs1`, the IC50 was > 19.9 µM (inactive).

Regarding `c1ccc(OCCNc2nc(Nc3ccc(-n4ccnc4)cc3)nc3c2ncn3C2CCCCC2)cc1`, the IC50 entry is “inactive”.

Regarding `COc1cc(Nc2nc(-c3ccc(C(N)=O)cc3)ncc2C)cc(OC)c1OC`, the IC50 entry was “inactive”.

As for `Cc1cc(Nc2ccc3c(c2)OCO3)nc(N2CCN(Cc3ccc4c(c3)OCO4)CC2)n1`, the IC50 result was “inactive”.

Consider `c1ccc2c(-c3nccc(Nc4ccc(N5CCOCC5)cc4)n3)csc2c1`, for which the IC50 is > 21.8 µM (inactive).

Turning to `COc1ccc(CCNc2nc(NC3CCN(Cc4ccccc4)CC3)nc3c2ncn3C2CCCCC2)cc1`, the IC50 entry is “inactive”.

Turning to `COc1ccc(-c2nc3ncnc(Nc4cc(OC)c(OC)c(OC)c4)c3[nH]2)cn1`, the IC50 was > 18.1 µM (inactive).

As to `CC(C)n1cnc2c(NC3CCN(Cc4ccccc4)CC3)nc(Nc3cccc(N(C)C)c3)nc21`, the IC50 is > 21.5 µM (inactive).

For the origin of these results see PubChem BioAssay AID1159605 (The Scripps Research Institute Molecular Screening Center, 2016).
